In patent EP2505659A1, “Methods for the identification of dioxygenase interacting molecules and for the purification of dioxygenase proteins” (CELLZOME AG, priority 2011, dated 2012):
Where a name gives a salt, the structure may show the parent alone. Read-outs that look alike come from different tables or passages of the source.

What was measured:
Assay in all cases: Bead competition binding assay, immobilized compound A, K-562, HL-60 and Jurkat nuclear lysates
Settings in all cases: 100 µM free compound A, read-out: Fold change versus DMSO control
FTO = target: T1, FTO (Homo sapiens, UniProt Q9C0B1)
T1 construct: endogenous in cells
T1 sequence (Q9C0B1 whole entry): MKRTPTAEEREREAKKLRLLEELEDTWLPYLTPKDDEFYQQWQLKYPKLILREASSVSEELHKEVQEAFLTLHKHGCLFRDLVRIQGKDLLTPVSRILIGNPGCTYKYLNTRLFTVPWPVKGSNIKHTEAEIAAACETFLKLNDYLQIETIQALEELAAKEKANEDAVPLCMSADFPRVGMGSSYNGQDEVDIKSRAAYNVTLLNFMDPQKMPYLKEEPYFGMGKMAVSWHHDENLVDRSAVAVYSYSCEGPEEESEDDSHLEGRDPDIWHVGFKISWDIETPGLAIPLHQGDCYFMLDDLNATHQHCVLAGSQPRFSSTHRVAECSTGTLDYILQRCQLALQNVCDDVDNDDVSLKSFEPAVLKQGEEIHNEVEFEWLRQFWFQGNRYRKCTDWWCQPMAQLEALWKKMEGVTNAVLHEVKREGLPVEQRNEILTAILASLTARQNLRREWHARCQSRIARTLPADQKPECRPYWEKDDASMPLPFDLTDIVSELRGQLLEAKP
Source text: (§1) K562 cells were also purchased from DSMZ (Braunschweig, Germany).
(§2) Table 5: Peptide elution off the LC system

PLOD1 = target: T2, PLOD1 (Homo sapiens, UniProt Q02809)
T2 construct: capturing and identification of dioxygenases from nuclear protein extracts; endogenous in cells
T2 sequence (Q02809 19-727): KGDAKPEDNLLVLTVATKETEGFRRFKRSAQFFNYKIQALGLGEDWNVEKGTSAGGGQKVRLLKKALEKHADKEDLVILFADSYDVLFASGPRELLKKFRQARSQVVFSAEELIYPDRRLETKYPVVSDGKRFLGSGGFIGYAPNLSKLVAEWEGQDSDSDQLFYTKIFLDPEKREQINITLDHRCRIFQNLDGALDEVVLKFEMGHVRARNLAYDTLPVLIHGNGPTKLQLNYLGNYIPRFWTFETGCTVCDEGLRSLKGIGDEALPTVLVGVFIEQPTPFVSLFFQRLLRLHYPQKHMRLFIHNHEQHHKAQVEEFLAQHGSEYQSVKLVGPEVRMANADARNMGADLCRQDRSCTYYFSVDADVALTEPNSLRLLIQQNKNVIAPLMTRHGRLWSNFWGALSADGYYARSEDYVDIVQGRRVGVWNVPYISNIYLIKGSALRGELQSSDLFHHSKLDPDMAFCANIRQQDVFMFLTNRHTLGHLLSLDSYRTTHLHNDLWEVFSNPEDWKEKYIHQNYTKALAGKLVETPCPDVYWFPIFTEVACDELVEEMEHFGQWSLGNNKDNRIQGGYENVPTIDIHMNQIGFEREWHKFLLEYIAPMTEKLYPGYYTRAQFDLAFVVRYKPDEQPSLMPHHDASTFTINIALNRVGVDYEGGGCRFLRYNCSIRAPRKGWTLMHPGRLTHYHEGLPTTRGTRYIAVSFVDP
Source text: as §1, §2

PLOD3 = target: T3, PLOD3 (Homo sapiens, UniProt O60568)
T3 construct: capturing and identification of dioxygenases from nuclear protein extracts; endogenous in cells
T3 sequence (O60568 25-738): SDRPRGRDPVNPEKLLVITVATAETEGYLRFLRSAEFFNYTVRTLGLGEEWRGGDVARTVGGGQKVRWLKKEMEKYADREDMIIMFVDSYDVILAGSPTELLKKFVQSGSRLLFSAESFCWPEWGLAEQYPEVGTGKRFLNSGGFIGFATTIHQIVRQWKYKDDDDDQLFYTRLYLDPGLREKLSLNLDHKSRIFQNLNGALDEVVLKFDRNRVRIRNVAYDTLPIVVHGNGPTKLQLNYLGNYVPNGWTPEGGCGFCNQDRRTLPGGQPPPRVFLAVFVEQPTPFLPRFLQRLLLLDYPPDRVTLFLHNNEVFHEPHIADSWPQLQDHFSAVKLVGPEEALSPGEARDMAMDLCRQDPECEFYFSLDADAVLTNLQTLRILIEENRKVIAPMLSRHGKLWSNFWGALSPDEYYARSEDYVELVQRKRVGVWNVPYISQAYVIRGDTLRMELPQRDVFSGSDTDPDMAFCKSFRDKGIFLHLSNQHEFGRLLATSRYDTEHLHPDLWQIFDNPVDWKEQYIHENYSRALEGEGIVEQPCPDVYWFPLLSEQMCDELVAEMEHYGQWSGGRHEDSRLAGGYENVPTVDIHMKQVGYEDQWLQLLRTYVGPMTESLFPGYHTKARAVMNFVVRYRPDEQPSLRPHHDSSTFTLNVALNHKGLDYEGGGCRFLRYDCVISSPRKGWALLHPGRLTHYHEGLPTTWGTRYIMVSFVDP
Source text: as §1, §2

Work on `O=C(O)CNC(=O)C1C(=O)OC2(CCNCC2)OC1=O` [compound A, 2-(2,4-dioxo-1,5-dioxa-9-azaspiro[5.5]undecane-3-carboxamido)acetic acid hydrochloride] yielded a remaining binding at 100 µM (FTO; Jurkat nuclear lysate) of 8%, a remaining binding at 100 µM (FTO; K-562 nuclear lysate) of 19% and a remaining binding at 100 µM (PLOD1; Jurkat nuclear lysate) of 91%. The remaining binding at 100 µM (PLOD1; K-562 nuclear lysate) was 35%, the remaining binding at 100 µM (PLOD3; Jurkat nuclear lysate) was 161% and the remaining binding at 100 µM (PLOD3; K-562 nuclear lysate) was 52%.
